Assay results from publication PMC8901748, “A novel prostaglandin E receptor 4 (EP4) small molecule antagonist induces articular cartilage regeneration” (Cell Discovery, 2022).
Where two headings read alike, the source gives them in different places. Blank lines part the entries; values can stand above or below the compound they belong to.

How the values were obtained:
[1] = system: Sox9 promoter-Luc in ATDC5 cells; experiment: Sox9 promoter-Luc luciferase reporter assay; type: cell-based, mouse; conditions: 10 μM H89, 30 μM HL-43, 6 h
Description: (§1) Six firefly luciferase reporters were used in the Luciferase assay, including CRE-Luc (PathDetect CRE cis-Reporting System; Stratagene, La Jolla CA) driven by a basic promoter (TATA box) plus four repeats of CRE; Sox9 promoter-Luc contains human SOX9 proximal promoter region (−1034 bp to +67 bp)[45]; 4 × 48-p89-Luc, mouse Col2a1 minimal promoter. AP-1-Luc, Nf-κb-Luc, STAT-Luc were obtained from Stratagene. Chondrocytes were cultured in 24-well plates and 300 ng firefly luciferase reporter constructs were transiently transfected using transfection reagent TransExellent-DNA (Cenji Biotech Inc, China) following manufacturer’s instruction, and 15 ng of the Copia-Renilla luciferase reporter was co-transfected as a normalization control. Cells were treated with the indicated reagents for 48 h after transfection. The Dual-Luciferase measurements were performed in triplicate using the Luciferase assay kit (Promega) and a LUMIstar Omega luminometer (BMG Labtech, Mornington, Australia).

CRE-Luc in ATDC5 cells = experiment: CRE-Luc luciferase reporter assay; type: cell-based, mouse; conditions: 10 μM H89, 30 μM HL-43, 2 ng/ml IL-1β, 6 h
Description: as §1, with “Cells were treated with the indicated reagents for 48 h after transfection.” left out

[2] = Preliminary pharmacokinetic studies in CD1 mice; type: in vivo
Description: To evaluate the preclinical pharmacokinetic (PK) profiles of compound HL-43 and HL-66, 36 male CD1 mice were randomly divided into four groups for PK studies. […] Blood samples were collected at 0.083, 0.25, 0.5, 1, 2, 4, 8, 12, and 24 h after administration (n = 3). Then the whole blood was centrifuged at 5500 × g for 15 min at 4 °C. After suitable sample preparation, the concentration of HL-43 and HL-66 in plasma sample was determined by Agilent HPLC-MS/MS system (Agilent Technologies, USA). Pharmacokinetic parameters were calculated by WinNonlin software version 7.0 based on non-compartmental analysis (Pharsight Corporation, Mountain View, USA). Mean plasma concentration-time curves were plotted by GraphPad Prism 7.0 (GraphPad Software Inc., CA, USA).

[3] = system: primary articular chondrocytes; experiment: Cell viability by CCK-8 assay; type: cell-based, mouse; conditions: 72 h, read-out: IC50 (cell viability, toxicity in chondrocytes)
Description: The cell viability was evaluated by CCK-8 assay (Dojindo Molecular Technologies). Primary chondrocytes were plated in the 96-well plates and treated with the EP4 antagonists or DMSO for 72 h. A total of 10 μl CCK-8 was added to each well, the cells were incubated in the presence of CCK-8 for 2–3 h. The optical density (OD) of each well at 450 nm was recorded on a Microplate Reader (SPECTRA MAX190). The absorbance values were normalized by subtracting blank values of […]. The cell viability (% of control) is calculated as the percentage of (ODtest − ODblank)/(ODcontrol − ODblank). The 50% inhibitory concentration (IC50) was calculated with GraphPad Prism software using the sigmoidal dose-response function.
(§2) ATDC5 cell line was purchased from Riken BioResource Center (Tsukuba, Japan) and grown in a 1:1 mixture of DMEM/F12 medium (Corning, 10-092-CVR) supplemented with 5% fetal bovine serum (Gibco, 10099, USA) and 1% penicillin-streptomycin solution (Life Technologies). Cells were maintained at 37 °C under 5% CO2. Primary chondrocytes were obtained from knee joint cartilage of newborn mice. Knee joints were dissected from the tibia plateau and femoral condyle articular cartilage of mouse pups and digested in 0.1% collagenase type II (Sigma) overnight at 37 °C and chondrocytes were harvested by centrifugation. Primary chondrocytes were cultured at a density of 5 × 10^3 cells per ml at 37 °C with 5% CO2. DMEM/F12 medium with 10% fetal bovine serum (FBS) and 1% penicillin–streptomycin was used to culture the primary chondrocytes. Chondrogenic differentiation were induced with chondrogenic medium, which contains insulin-transferrin-selenium (ITS) (Sigma, I3146), 10 ng/ml TGF-β3 (PEPROTECH, 100-36E, USA), 100 nM Dexamethasone (Sigma, D4902), 50 μg/ml VC (Sigma), 1 mM sodium pyruvate (Sigma) and 40 μg/ml proline (Sigma), and/or treatment with rmIL-1β (R&D, 401-ML/CF), TNFα (PEPROTECH, 300-01A-50) in DMEM/F12 for indicated days. Western blotting was performed according to standard protocols. Antibodies used were: rabbit anti-Mmp3 (1:1000, HuaBio), rabbit anti-Mmp13 (1:500, abcam, ab39012), rabbit anti-p-CREB (1:2000, Cell Signaling Technology, 87G3), rabbit anti-CREB (1:2000, Cell Signaling Technology, 48H2), mouse anti-GAPDH (1:5000; Sigma-Aldrich, G8795), rabbit anti-Col2 (Abcam, Ab34712), rabbit anti-STAT3 (1:2000; Abcam, ab68153), rabbit anti-p-STAT3 (Y705) (1:2000; Abcam, ab76315), rabbit anti -p65 (1:1000; CST, 3034), rabbit anti-p-p65 (1:1000; CST, 3033), and rabbit anti-IκBα (1:1000; Abways, CY5026).

[4] = system: Col2a1, Acan, Mmp3, Mmp9, Mmp13 expression in primary mouse chondrocytes; experiment: qRT-PCR of anabolic and catabolic factors in primary chondrocytes; type: cell-based; conditions: primary murine chondrocytes, 1 ng/ml IL-1β, 24 hr
Description: as §2
Quantitative RT-PCR was performed to measure the relative mRNA levels. RNA samples were prepared from the chondrocytes using Trizol (Takara). cDNA was generated using the Prime Script RT reverse transcriptase kit (Yeasen, Drr036a). Primers used for amplification were shown in Supplementary Table S1, GAPDH was used as the house keeping gene.

zebrafish embryos = experiment: Zebrafish embryo toxicity assay; set-up: Mortality / Deformities / Hatching: dose or concentration left out as unconfirmed; conditions: for Mortality: zebrafish embryos; for Deformities / Hatching: zebrafish
Description: A breeding stock of zebrafish at the age of 6–24 months is used for egg production. Fertilized eggs were collected and viable eggs were transferred to the 12-well plate at 26 °C. Fertilized eggs between the 4-cell and 128-cell stages be used for the toxicity test, with ten fertilized eggs per concentration and three replicates of each concentration, a total of 30 eggs for each concentration. […] DMSO was added as vehicle control. Hatching, morphological abnormalities and survival were assessed 24 and 72 h of post-fertilization (dpf) in zebrafish exposed to the chemicals.

Compound: O=S(=O)(NCCNC/C=C/c1ccc(Br)cc1)c1cccc2cnccc12 [H89, reference compound]
HL-43-induced Sox9 promoter luciferase reporter activity [1]: completely abolished
HL-43-induced CRE luciferase reporter activity (CRE-Luc in ATDC5 cells): completely abolished

AUC0-∞ ([2]; I.V. (5 mg/kg)): 1236.5 ng·h/mL
C0 ([2]; I.V. (5 mg/kg)): 2557.7 ng/mL
CL ([2]; I.V. (5 mg/kg)): 13 mL/min/kg
Vd ([2]; I.V. (5 mg/kg)): 3.7 L/kg
t1/2 ([2]; I.V. (5 mg/kg)): 3.2 h
AUC0-∞ ([2]; P.O. (1 mg/kg)): 672.5 ng·h/mL
CL ([2]; P.O. (1 mg/kg)): 123 mL/min/kg
Cmax ([2]; P.O. (1 mg/kg)): 286.0 ng/mL
Vd ([2]; P.O. (1 mg/kg)): 26.7 L/kg
t1/2 ([2]; P.O. (1 mg/kg)): 2.5 h
Bioavailability ([2]; oral): 10.9%
Compound: Cc1ccc(-c2nnn(CCOc3ccc(F)cc3)c2C(=O)N[C@@H](C)c2ccc(C(=O)O)cc2)o1 [HL-66]
IC50 [3]: 330 µM
Col2a1 expression (screen of EP4 antagonists) ([4]; EP4 antagonists (2 nM)): highest potency in inducing Col2a1 expression
Mmp3 expression (screen of EP4 antagonists) ([4]; EP4 antagonists (30 μM)): reducing Mmp3 expression

Compound: Cc1ccc(-c2cc(C(F)(F)F)nn2-c2ccc(S(N)(=O)=O)cc2)cc1 [Celecoxib]
IC50 ([3]; Mus musculus, Chondrocyte): 34.7 µM
Mortality (zebrafish embryos; 24hpf, 0.03, n=30): 0/30
Mortality (zebrafish embryos; 24hpf, 0.1, n=30): 7/30
Mortality (zebrafish embryos; 24hpf, 0.3, n=30): 12/30
Mortality (zebrafish embryos; 24hpf, 1, n=30): 18/30
Deformities (zebrafish embryos; 72hpf, 0.03, n=30): 4/30
Hatching (zebrafish embryos; 72hpf, 0.03, n=30): 12/30
Deformities (zebrafish embryos; 72hpf, 0.1, n=30): 3/30
Hatching (zebrafish embryos; 72hpf, 0.1, n=30): 8/30
Deformities (zebrafish embryos; 72hpf, 0.3, n=30): 7/30
Hatching (zebrafish embryos; 72hpf, 0.3, n=30): 13/30
Deformities (zebrafish embryos; 72hpf, 1, n=30): 2/30
Hatching (zebrafish embryos; 72hpf, 1, n=30): 3/30
